The subject of data set [1] is human skin. The experiment in a line: human skin patch test, 5, 25 and 50% (induction and challenge phases). It is filed as in vivo. To be noted: diluted with D.I. water to 5%, 105 panelists completed. The source says:
(§1) Based on these studies PDO is not expected to be a skin irritant or sensitizer in humans.
The purpose of this study was to determine the potential of biologically-derived 1,3-propanediol, diluted to concentrations of 5%, 25%, and 50%, to cause irritation or delayed contact hypersensitivity in humans. The method employed in carrying out this test, described below, was similar to that described in “Appraisal of the Safety of Chemicals in Foods, Drugs and Cosmetics” by J. H. Drake and published by the Association of Food and Drug Officials of the United States, incorporated herein by reference.
Test Panel: The test involved the application of the test article to the upper arms of a group of 112 volunteer panelists. The panelists ranged from 16 to 71 years of age. One hundred and five panelists completed the study. Prior to the initiation of the study, all panelists were in good general health and free of any visible skin disease or anomaly in the area to be patched. Each panelist was required to read, understand and sign an informed consent statement. […]

Data set [2] concerns human skin. In words: second human skin patch test. It is filed as in vivo.
From the text: as §1

Consider `OCCCO` [PDO, 1,3-propanediol], for which the “skin irritant, fatiguing agent, or sensitizing agent” value in data set [1] is “not to be a skin irritant, fatiguing agent, or sensitizing agent”. Further, the “dermal irritation or sensitization reactions” value in data set [2] (25, 50, and 75% PDO at pH 7, or 75% PDO at pH 4 and 9) is recorded as “did not produce any clinically significant dermal irritation or sensitization reactions”.

For the compound `CC(O)CO` (stereo not drawn) [propylene glycol, reference compound], the “patch test irritation of human skin” value in data set [2] (25, 50, and 75% (pH 7)) was “patch test irritants and cumulative irritants”.

The values are drawn from patent publication US9668951B2, “Pharmaceutical compositions comprising renewably-based biodegradable 1,3-propanediol” (DuPont Tate & Lyle Bio Products Company, LLC, priority 2006, dated 2017).
